According to patent publication US9873724B2, “Pro-angiogenic peptides and peptide conjugates” (Yissum Research Development Company of the Hebrew …, priority 2013, dated 2018):
Where “and” joins values, the source holds several entries; their conditions need not be identical. Equal entries are not always repeated. Square brackets hold non-standard residues; d marks the D form. * marks the point of attachment. Myristoyl = CCCCCCCCCCCCCC(=O)*; Nle = CCCC[C@H](N)C(=O)O

Key:
[1] = test system: C57BL mice, polymicrobial septic mouse model; experiment: In-vivo septic shock model (cecum ligation and puncture); settings: 20 mg/Kg s.c. once a day for 5 days; FIG. 5
Description: The polymicrobial septic mouse model of severe sepsis (Belikoff et al. The Journal of Immunology, 2011, 186: 2444-2453), was induced in wild-type (WT) C57BL mice using cecum ligation and puncture (CLP) approach. In summary, mice were anesthetized, a 1.5-cm, longitudinal incision in the lower right quadrant of the abdomen was performed and the cecum was exposed. The distal two third of the cecum was ligated with 4-0 silk suture and punctured doubly with an 18-gauge needle. The cecum was then replaced into the peritoneal cavity and the incision was closed with surgical staples. After that, the mice were resuscitated with sterile saline injected subcutaneously and allowed free access to food and water after awaking.
Following this procedure, mice were then injected s.c. once a day, for 5 days, with either vehicle or with 20 mg/Kg of GPS-725.017 (SEQ ID NO: 12).

[2] = test system: mouse aortic rings; experiment: Aortic ring assay ex-vivo (capillary sprouting from mouse aortic rings in collagen; repeated with VEGF); assay type: cell-based; design: Capillary length 10 μM (10 μM) / Capillary length 20 μM / Capillary length 10 μM: unit not given here
Description: Thoracic aortas were dissected from 7- to 8-week-old male SABRA mice. The aortas were immediately transferred to Petri dishes containing BIO-MPM-1. The adventitia and small vessels around the aorta were carefully removed under a dissecting microscope, and transverse cuts of 0.75 mm were made. The resulting aortic rings were extensively rinsed and incubated overnight in BIO-MPM-1 containing penicillin-streptomycin. Subsequently, the rings were embedded in 50 μl collagen mix (7 parts collagen, 1 part 10× Eagle minimal essential medium, MEM, and 2 parts 0.15 M sodium bicarbonate) in 96-well plates (Nunc, Rochester, N.Y.). Solidification of the collagen solution was achieved by raising the pH to neutral and the temperature to 37° C. 150 μl BIO-MPM-1 containing penicillin-streptomycin and the tested factors or peptides) was added to the embedded rings, and the plates were incubated at 37° C. in a humidified 10% CO2 atmosphere. Medium containing factors and/or peptides was refreshed at days 4 and 8. After two weeks, the rings were fixed with 4% formaldehyde for 24 hours, followed by staining with crystal violet (0.02%) dissolved in ethanol and extensive washing to remove excessive stain. The effect of factors and peptides was examined in 4 wells (4 rings of mouse aortic rings) per assay. Micrographs of representative rings were taken using a digital camera (Nikon, Tokyo, Japan). Morphometric analysis of sprouting was performed manually using Image-Pro 4.5 software (Media Cybernetics, Silver Spring, Md.) according to Nissanov et al. (Lab Invest. 1995; 73:734-739). Nonstained rings were subjected to paraffin sections and hematoxylin and eosin (H&E) staining.
FIGS. 1A-1C represents aortic ring capillary length and FIGS. 2A-2C aortic ring capillary width. In the table: K-Flu is a Lysine residue coupled with a fluorescein moiety, 4BrPhe is 4-bromo-Phenylalanine, Dod is Dodecanoyl, Dec designates Decanoyl, Oct is Octanoyl, and Hex is Hexanoyl.
The aortic ring assay was repeated in the presence of 10 μM concentration of peptides AB-033 (SEQ ID NO: 13) and AB-034 (SEQ ID NO: 14) together with the pro-angiogenetic protein VEGF.

With “Myr-Gly-Nle-Arg-Pro-Tyr-NH2 (Myristoyl-G[Nle]RPY-NH2; SMILES CCCCCCCCCCCCCC(=O)NCC(=O)N[C@@H](CCCC)C(=O)N[C@@H](CCCNC(=N)N)C(=O)N1CCC[C@H]1C(=O)N[C@@H](Cc1ccc(O)cc1)C(N)=O) [AB-017]” the “rescue from death in septic-shock model” value [1] was “rescue mice from death”, the “capillary / vessel formation (in words)” value ([2]; aortic ring assay, FIGS. 1A-1C and 2A-2C) was “induce massive capillary formation” and the “Capillary length 10 μM” value ([2]; peptide 10 μM, rings fixed after two weeks) was 3,100 and 3,770. The “Capillary length 20 μM” value ([2]; peptide 20 μM, rings fixed after two weeks) was 11,200 and 15,300.
